In patent US20240383874A1, “BENZENE RING DERIVATIVE, AND COMPOSITION AND PHARMACEUTICAL USE THEREOF” (Xizang Haisco Pharmaceutical Co., Ltd., priority 2020, published 2024):
Where a name gives a salt, the structure may show the parent alone.

Tested on: 22RV1 cells
Test: Experiment 2 on inhibiting 22RV1 cell proliferation (7 days, CellTiter-Glo)
Format: cell-based
Conditions: Homo sapiens, 22Rv1, 168 h, 1% css-FBS phenol red-free medium, incubated with compound 7 days, read-out: IC50 values on proliferation inhibition of 22RV1 cells
Summary of the method: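 22RV1 cells plated at 2000/well in phenol red-free medium with 1% css-FBS and treated next day with compound for 7 days at 37 °C. Viability read by CellTiter-Glo luminescence relative to DMSO vehicle; IC50 from dose-response fit.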

| IC50 [nM] | SMILES |
| --- | --- |
| 593 | CC(C)(c1ccc(OCc2ccnc(N3CCN(C4CCN(CC5CCN(c6ccc7c(c6)C(=O)N(C6CCC(=O)NC6=O)C7=O)CC5)C4)CC3)n2)cc1)c1cc(Cl)cc(C#N)c1 (stereo not drawn) [Compound 63 trifluoroacetate, 3-chloro-5-(2-(4-((2-(4-(1-((1-(2-(2,6-dioxopiperidin-3-yl)-1,3-dioxoisoindolin-5-yl)piperidin-4-yl)methyl)pyrrolidin-3-yl)piperazin-1-yl)pyrimidin-4-yl)methoxy)phenyl)propan-2-yl)benzonitrile] |
| 637 | CC(C)(c1ccc(OCc2ccnc(N3CCC(N4CC(N5CCN(c6ccc7c(c6)C(=O)N(C6CCC(=O)NC6=O)C7=O)CC5)C4)CC3)n2)cc1)c1cc(Cl)cc(C#N)c1 (stereo not drawn) [Compound 64 trifluoroacetate, 3-chloro-5-(2-(4-((2-(4-(3-(4-(2-(2,6-dioxopiperidin-3-yl)-1,3-dioxoisoindolin-5-yl)piperazin-1-yl)azetidin-1-yl)piperidin-1-yl)pyrimidin-4-yl)methoxy)phenyl)propan-2-yl)benzonitrile] |
| 759 | CC(C)(c1ccc(OCc2ccnc(N3CCC(N4CC(CN5CCN(c6cccc7c6C(=O)N(C6CCC(=O)NC6=O)C7=O)CC5)C4)CC3)n2)cc1)c1cc(Cl)cc(C#N)c1 (stereo not drawn) [Compound 65 trifluoroacetate, 3-chloro-5-(2-(4-((2-(4-(3-((4-(2-(2,6-dioxopiperidin-3-yl)-1,3-dioxoisoindolin-4-yl)piperazin-1-yl)methyl)azetidin-1-yl)piperidin-1-yl)pyrimidin-4-yl)methoxy)phenyl)propan-2-yl)benzonitrile] |
| 584 | CC(C)(c1ccc(OCc2ccnc(N3CCN(CC4CCN(C5CC6(CCN(c7ccc8c(c7)C(=O)N(C7CCC(=O)NC7=O)C8=O)CC6)C5)C4)CC3)n2)cc1)c1cc(Cl)cc(C#N)c1 (stereo not drawn) [Compound 66 trifluoroacetate, 3-chloro-5-(2-(4-((2-(4-((1-(7-(2-(2,6-dioxopiperidin-3-yl)-1,3-dioxoisoindolin-5-yl)-7-azaspiro[3.5]nonan-2-yl)pyrrolidin-3-yl)methyl)piperazin-1-yl)pyrimidin-4-yl)methoxy)phenyl)propan-2-yl)benzonitrile] |
| 643 | CC(C)(c1ccc(OCc2ccnc(N3CCN(CC4CCN(C5CCCN(c6ccc7c(c6)C(=O)N(C6CCC(=O)NC6=O)C7=O)C5)C4)CC3)n2)cc1)c1cc(Cl)cc(C#N)c1 (stereo not drawn) [Compound 67 trifluoroacetate, 3-chloro-5-(2-(4-((2-(4-((1-(1-(2-(2,6-dioxopiperidin-3-yl)-1,3-dioxoisoindolin-5-yl)piperidin-3-yl)pyrrolidin-3-yl)methyl)piperazin-1-yl)pyrimidin-4-yl)methoxy)phenyl)propan-2-yl)benzonitrile] |
| 371 | CC(C)(c1ccc(OCc2ccnc(N3CC4(CCN(CC5CCN(c6ccc7c(c6)C(=O)N(C6CCC(=O)NC6=O)C7=O)CC5)CC4)C3)n2)cc1)c1cc(Cl)cc(C#N)c1 (stereo not drawn) [Compound 69 trifluoroacetate, 3-chloro-5-(2-(4-((2-(7-((1-(2-(2,6-dioxopiperidin-3-yl)-1,3-dioxoisoindolin-5-yl)piperidin-4-yl)methyl)-2,7-diazaspiro[3.5]nonan-2-yl)pyrimidin-4-yl)methoxy)phenyl)propan-2-yl)benzonitrile] |
| 612 | CC(C)(c1ccc(OCc2ccnc(N3CC4(CCN(CC5CN(c6ccc7c(c6)C(=O)N(C6CCC(=O)NC6=O)C7=O)C5)CC4)C3)n2)cc1)c1cc(Cl)cc(C#N)c1 (stereo not drawn) [Compound 70 trifluoroacetate, 3-chloro-5-(2-(4-((2-(7-((1-(2-(2,6-dioxopiperidin-3-yl)-1,3-dioxoisoindolin-5-yl)azetidin-3-yl)methyl)-2,7-diazaspiro[3.5]nonan-2-yl)pyrimidin-4-yl)methoxy)phenyl)propan-2-yl)benzonitrile] |
| 811 | Cn1c(=O)n(C2CCC(=O)NC2=O)c2ccc(CN3CC(N4CCC(N5CCN(c6nccc(COc7ccc(C(C)(C)c8cc(Cl)cc(C#N)c8)cc7)n6)CC5)CC4)C3)cc21 (stereo not drawn) [Compound 71 trifluoroacetate, 3-chloro-5-(2-(4-((2-(4-(1-(1-((1-(2,6-dioxopiperidin-3-yl)-3-methyl-2-oxo-2,3-dihydro-1H-benzo[d]imidazol-5-yl)methyl)azetidin-3-yl)piperidin-4-yl)piperazin-1-yl)pyrimidin-4-yl)methoxy)phenyl)propan-2-yl)benzonitrile] |
| 464 | CC(C)(c1ccc(OCc2ccnc(N3CC4CN(CC5CCN(c6ccc7c(c6)C(=O)N(C6CCC(=O)NC6=O)C7=O)CC5)CC4C3)n2)cc1)c1cc(Cl)cc(C#N)c1 (stereo not drawn) [Compound 72 trifluoroacetate, 3-chloro-5-(2-(4-((2-(5-((1-(2-(2,6-dioxopiperidin-3-yl)-1,3-dioxoisoindolin-5-yl)piperidin-4-yl)methyl)hexahydropyrrolo[3,4-c]pyrrol-2(1H)-yl)pyrimidin-4-yl)methoxy)phenyl)propan-2-yl)benzonitrile] |
| 97 | CC(C)(c1ccc(OCc2ccnc(N3CC4CN(CC5CN(c6ccc7c(c6)C(=O)N(C6CCC(=O)NC6=O)C7=O)C5)CC4C3)n2)cc1)c1cc(Cl)cc(C#N)c1 (stereo not drawn) [Compound 73 trifluoroacetate, 3-chloro-5-(2-(4-((2-(5-((1-(2-(2,6-dioxopiperidin-3-yl)-1,3-dioxoisoindolin-5-yl)azetidin-3-yl)methyl)hexahydropyrrolo[3,4-c]pyrrol-2(1H)-yl)pyrimidin-4-yl)methoxy)phenyl)propan-2-yl)benzonitrile] |
| 474 | Cn1c(=O)n(C2CCC(=O)NC2=O)c2cccc(CN3CCC(CN4CCC(C5CCN(c6nccc(COc7ccc(C(C)(C)c8cc(Cl)cc(C#N)c8)cc7)n6)CC5)CC4)CC3)c21 (stereo not drawn) [Compound 74 trifluoroacetate, 3-chloro-5-(2-(4-((2-(1′-((1-((1-(2,6-dioxopiperidin-3-yl)-3-methyl-2-oxo-2,3-dihydro-1H-benzo[d]imidazol-4-yl)methyl)piperidin-4-yl)methyl)-[4,4′-bipiperidin]-1-yl)pyrimidin-4-yl)methoxy)phenyl)propan-2-yl)benzonitrile] |
| 275 | CC(C)(c1ccc(OCc2ccnc(N3CCC4(CC3)CN(C3CCN(C5CN(c6ccc7c(c6)C(=O)N(C6CCC(=O)NC6=O)C7=O)C5)CC3)C4)n2)cc1)c1cc(Cl)cc(C#N)c1 (stereo not drawn) [Compound 75 trifluoroacetate, 3-chloro-5-(2-(4-((2-(2-(1-(1-(2-(2,6-dioxopiperidin-3-yl)-1,3-dioxoisoindolin-5-yl)azetidin-3-yl)piperidin-4-yl)-2,7-diazaspiro[3.5]nonan-7-yl)pyrimidin-4-yl)methoxy)phenyl)propan-2-yl)benzonitrile] |
| 475 | CC(C)(c1ccc(OCc2ccnc(N3CCC4(CC3)CN(C3CN(C5CN(c6ccc7c(c6)C(=O)N(C6CCC(=O)NC6=O)C7=O)C5)C3)C4)n2)cc1)c1cc(Cl)cc(C#N)c1 (stereo not drawn) [Compound 76 trifluoroacetate, 3-chloro-5-(2-(4-((2-(2-(1′-(2-(2,6-dioxopiperidin-3-yl)-1,3-dioxoisoindolin-5-yl)-[1,3′-biazetidin]-3-yl)-2,7-diazaspiro[3.5]nonan-7-yl)pyrimidin-4-yl)methoxy)phenyl)propan-2-yl)benzonitrile] |
| 192 | CC(C)(c1ccc(OCc2ccnc(N3CCC(CN4CCC5(CC4)CCN(c4ccc6c(c4)C(=O)N(C4CCC(=O)NC4=O)C6=O)CC5)CC3)n2)cc1)c1cc(Cl)cc(C#N)c1 (stereo not drawn) [Compound 77 trifluoroacetate, 3-chloro-5-(2-(4-((2-(4-((9-(2-(2,6-dioxopiperidin-3-yl)-1,3-dioxoisoindolin-5-yl)-3,9-diazaspiro[5.5]undecan-3-yl)methyl)piperidin-1-yl)pyrimidin-4-yl)methoxy)phenyl)propan-2-yl)benzonitrile] |
| 484 | CC(C)(c1ccc(OCc2ccnc(N3CC4CN(C5CCN(C6CN(c7ccc8c(c7)C(=O)N(C7CCC(=O)NC7=O)C8=O)C6)CC5)CC4C3)n2)cc1)c1cc(Cl)cc(C#N)c1 (stereo not drawn) [Compound 81 trifluoroacetate, 3-chloro-5-(2-(4-((2-(5-(1-(1-(2-(2,6-dioxopiperidin-3-yl)-1,3-dioxoisoindolin-5-yl)azetidin-3-yl)piperidin-4-yl)hexahydropyrrolo[3,4-c]pyrrol-2(1H)-yl)pyrimidin-4-yl)methoxy)phenyl)propan-2-yl)benzonitrile] |
| 413 | CC(C)(c1ccc(OCc2ccnc(N3CC4CN(C5CCN(CC6CCN(c7ccc8c(c7)C(=O)N(C7CCC(=O)NC7=O)C8=O)CC6)CC5)CC4C3)n2)cc1)c1cc(Cl)cc(C#N)c1 (stereo not drawn) [Compound 82 trifluoroacetate, 3-chloro-5-(2-(4-((2-(5-(1-((1-(2-(2,6-dioxopiperidin-3-yl)-1,3-dioxoisoindolin-5-yl)piperidin-4-yl)methyl)piperidin-4-yl)hexahydropyrrolo[3,4-c]pyrrol-2(1H)-yl)pyrimidin-4-yl)methoxy)phenyl)propan-2-yl)benzonitrile] |
| 316 | Cn1c(=O)n(C2CCC(=O)NC2=O)c2cccc(N3CCC(C4CCN(CC5CCN(c6nccc(COc7ccc(C(C)(C)c8cc(Cl)cc(C#N)c8)cc7)n6)CC5)CC4)CC3)c21 (stereo not drawn) [Compound 85 trifluoroacetate, 3-chloro-5-(2-(4-((2-(4-((1′-(1-(2,6-dioxopiperidin-3-yl)-3-methyl-2-oxo-2,3-dihydro-1H-benzo[d]imidazol-4-yl)-[4,4′-bipiperidin]-1-yl)methyl)piperidin-1-yl)pyrimidin-4-yl)methoxy)phenyl)propan-2-yl)benzonitrile] |
| 278 | CC(C)(c1ccc(OCc2ccnc(N3CCC(CN4CCC5(CC4)CCN(c4ccc6c(c4)C(=O)N(C4CCC(=O)NC4=O)C6=O)CC5)C3)n2)cc1)c1cc(Cl)cc(C#N)c1 (stereo not drawn) [Compound 86 trifluoroacetate, 3-chloro-5-(2-(4-((2-(3-((9-(2-(2,6-dioxopiperidin-3-yl)-1,3-dioxoisoindolin-5-yl)-3,9-diazaspiro[5.5]undecan-3-yl)methyl)pyrrolidin-1-yl)pyrimidin-4-yl)methoxy)phenyl)propan-2-yl)benzonitrile] |
